# Like-named read-outs stand apart in the source and are kept apart here.
# Tests used:
# [1] = background report, cited from earlier work
# [2] = test system: Osteogenic Precursor Cells in Bone Marrow; test: Effects on the number of osteogenic precursor cells in bone marrow, Experiment 2 (FCFU formation after subcutaneous administration); type: in vivo; conditions: 7 successive days, Lewis rat, N = 4
# Experimental: (§1) After the invention compound was administered to a 7-weeks old Wistar or Lewis rat intraperitoneally (Experiment 1) or dorsi-subcutaneously (Experiment 2) for 7 successive days, the femurs and tibias were excised. Marrow cells were collected from the bones so obtained, followed by incubation in a 25-cm^2 culture flask for 7 days. For the incubation, the αMEM medium containing 15% fetal calf serum was used. Subsequent to giemsa or alkaline phosphatase staining, the number of fibroblast colony forming units on the culture flask was counted. The number of the fibroblast colony forming units (=FCFUs) is known to correlate with the in vitro ostogenesis. The total number of FCFUs and the number of FCFUs positive to alkaline phosphatase are shown in Table 1 and Table 2, respectively. Experiment 1:
# Influence of the subcutaneous administration of
# the invention compounds and testosterone for 7
# successive days on the formation of FCFUs:
# The number of FCFUs (after 7 days) (Lewis rat N = 4)
# [3] = test system: osteogenic precursor cells; test: Improving effects on the osteogenesis depression in postovariectomy osteoporosis (FCFU forming ability); type: in vivo, female Wistar rat (ovariectomized)
# Experimental: From a 7-weeks old female Wistar rat, the ovaria were both excised and three months after that, administration of a drug was started. As the drug, 11β-OH-Δ^4 -A, was administered dorsi-subcutaneously three times a week, each, at 0.1 mg/kg or 1 mg/kg. Subsequent to the administration of the drug for 1 month, the femurs and shinbones were collected. From the right femur and both the shinbones, osteoblasts were collected and the formation of colonies (FCFUs) of osteogenic precursor cells was observed.
# osteocalcin = test: Effects on serum osteocalcin (radioimmunoassay); type: in vivo, Wistar rat
# Experimental: A 7-weeks old Wistar rat was intraperitoneally administered at 0.1 mg/kg with 11β-OH-Δ^4 -A for 7 successive days and the concentration of osteocalcin in the serum was measured by radioimmunoassay.
# [4] = test system: anterior lobe of prostate; test: Androgenic action, Hershberge method (1); type: in vivo, castrated Wistar male rat; conditions: 10 successive days, FIG. 8
# Experimental: (§2) (1) In accordance with the Hershberge method, a castrated, 4-weeks old, Wistar, male rat (6 rats per group) was subcutaneously administered with 11-OH-Δ^4- A at 0.1-0.3 mg/rat/day for 10 successive days. Similarly, a vehicle (sesame oil) was administered to the Sham-operated group and a control group, and testosterone propionate (T.P.) was administered at 0.1 mg/rat/day as a positive control. On the day following the completion of the administration, the anterior lobe of prostate and the musculus levator ani were excised and weighed. From a change in the weight of the anterior lobe of the prostate and the musculus levator ani, androgenic action and anabolic action were studied.
# [5] = Improving effects on the bone mass reduction in postovariectomy osteoporosis (bone-salt amount by DXA); type: in vivo, female Wistar rat (ovariectomized); conditions: three times a week, 3 months, FIGS. 3-6
# Experimental: From a 7-weeks old female Wistar rat, the ovaria were both excised. Three months after that, the administration of a drug was started. As the drug, 11β-OH-^4 -A or dihydroepiandrosterone (DHEA) was dorsisubcutaneously administered three times a week, each, at 1 mg/kg. After the drug administration was continued for 3 months, the femurs and shinbones were collected and the bone-salt amount was measured at three places, that is, the proximal end, diaphysis and distal end. The measurements of the bone-salt amount were conducted using an Aloka DCS-600 model by dual energy X-ray absorptiometry (DXA).
# [6] = test system: Osteogenic Precursor Cells in Bone Marrow; test: Effects on the number of osteogenic precursor cells in bone marrow, Experiment 1 (FCFU formation after intraperitoneal administration); type: in vivo; conditions: 1 mg/kg intraperitoneal, 7 successive days; Wistar rat, N = 4; after 7 days incubation
# Experimental: as §1
# Influence of the intraperitoneal administration of
# the invention compound at 1 mg/kg for 7 successive
# days on the formation of FCFUs:
# The number of FCFUs (after 7 days) (Wistar rat N = 4)
# musculus levator ani = test: Anabolic action, Hershberge method (1); type: in vivo, castrated Wistar male rat; conditions: 0.3 mg/rat/day subcutaneous, 10 successive days; FIG. 8
# Experimental: as §2
# Acute toxicity test = conditions: in vivo, sc; subcutaneous, Wistar rat
# Experimental: An acute toxicity test of the invention compound 11β-OH-Δ^4 -A was conducted in the following manner.
# To a Wistar rat, 11β-OH-Δ^4 -A was subcutaneously administered in an amount considered to be an intoxicating dose. The conditions of the rat were observed and at the same time, the LD50 value was determined.
compound,measurement,setting,value
estrogen,effect on bone mass of ovariectomized animals,[1],evident curative effect for a decrease in the bone mass of an ovariectomized animal
"C[C@]12CC[C@H]3[C@@H](CCC4=CC(=O)CC[C@@]43C)[C@@H]1CC[C@@H]2O [Testosterone, reference compound]",The number of FCFUs positive for alkaline phosphatase,[2]; 1 mg/kg subcutaneous,62 ± 5
same,The total FCFU number,[2]; 1 mg/kg subcutaneous,149 ± 5
"C[C@]12CCC(=O)C=C1CC[C@@H]1[C@@H]2[C@@H](O)C[C@]2(C)C(=O)CC[C@@H]12 [11β-OH-Δ^4 -A, 11β-hydroxy-4-androstene-3,17-dione]",osteogenesis depression observed after the ovariectomy,[3]; 0.1 mg/kg thrice a week for a month,successfully normalized back the osteogenesis depression observed after the ovariectomy
same,FCFU formation,"[3]; 0.1 mg/kg, dorsi-subcutaneous, three times a week, 1 month, FIG. 2",a marked increase in the FCFU formation
same,Serum osteocalcin concentration,"osteocalcin; 0.1 mg/kg intraperitoneal, 7 successive days",72.6 ± 2.7 ng/mL
same,Serum osteocalcin concentration,osteocalcin; 5 mg/kg,75.5 ± 1.0 ng/mL
same,concentration of osteocalcin (in words),osteocalcin; successive administration,increase the concentration of osteocalcin
same,weight of the prostate,[4]; 0.1-0.3 mg/rat/day (0.6-1.8 mg/kg/day) subcutaneous,a significant increase in the weight of the prostate
same,Androgenic action,[4]; 0.1-0.3 mg/rat/day subcutaneous,very weak
same,bone-salt amount at places of the femur,[5]; 1 mg/kg dorsi-subcutaneous,recovered to similar levels to those of the Sham-operated rat
same,bone-salt effects compared with dihydroepiandrosterone,"[5]; 1 mg/kg each, dorsi-subcutaneous",more potent than those of dihydroepiandrosterone
same,The number of FCFUs positive for alkaline phosphatase,[2]; 0.1 mg/kg subcutaneous,96 ± 16
same,The total FCFU number,[2]; 0.1 mg/kg subcutaneous,180 ± 9
same,The number of FCFUs positive for alkaline phosphatase,[2]; 1 mg/kg subcutaneous,128 ± 19
same,The total FCFU number,[2]; 1 mg/kg subcutaneous,189 ± 26
same,The number of FCFUs positive for alkaline phosphatase,[6],40 ± 11
same,The total FCFU number,[6],160 ± 35
same,weight of the musculus levator ani (anabolic action),musculus levator ani,An increase in the weight of the musculus levator ani
same,LD50,Acute toxicity test,≥ 1000 mg/kg
"C[C@]12C=CC(=O)C=C1CC[C@@H]1[C@@H]2[C@@H](O)C[C@]2(C)C(=O)CC[C@@H]12 [11β-OH-Δ^1,4 -A, 11β-hydroxy-1,4-androstadiene-3,17-dione]",The number of FCFUs positive for alkaline phosphatase,[2]; 0.1 mg/kg subcutaneous,85 ± 11
same,The total FCFU number,[2]; 0.1 mg/kg subcutaneous,178 ± 20
same,The number of FCFUs positive for alkaline phosphatase,[2]; 1 mg/kg subcutaneous,117 ± 12
same,The total FCFU number,[2]; 1 mg/kg subcutaneous,217 ± 22
"C[C@]12CC[C@H](O)CC1=CC[C@@H]1[C@@H]2CC[C@]2(C)C(=O)CC[C@@H]12 [dihydroepiandrosterone (DHEA), dihydroepiandrosterone]",effect on bone mass of ovariectomized animals,[1],extremely weak
same,effect on bone mass of ovariectomized animals,[1]; listed as dihydroepiandrosterone,bone-salt improving effects on the ovariectomized rat

# From US5565444A, “Osteogenesis promoter and osteoporosis remedy” (LTT Institute Co., Ltd., priority 1993, dated 1996)
